Experiments:
[1] = Metabolic stability in human liver microsomes; assay type: in vitro ADME; conditions: pH 7.4, 1 μM compound, 0.5 mg/mL microsome, NADPH 1 mM, 37° C., read-out: Human liver microsome stability t1/2
Text: • 1. Human liver microsome (Corning 452117), beagle dog liver microsome (XENOTECH D1000), SD rat liver microsome (XENOTECH R1000), and CD-1 mouse liver microsome (XENOTECH M1000) • 2. Na2HPO4 (Tianjin Guangfu Fine Chemical Research Institute 20180130) • 3. KH2PO4 (Tianjin Guangfu Fine Chemical Research Institute 20180920) • 4. MgCl2 (Tianjin Guangfu Fine Chemical Research Institute 20191216) • 5. NADPH (Solarbio 1216C022) • 6. Positive control compound verapamil (Sigma MKBV4993V) • 7. AB Sciex API4000 liquid chromatography-mass spectrometry system
• 1. Preparation of 100 mM phosphate-buffered saline (PBS): 7.098 g Na2HPO4 was weighed. 500 mL pure water was added. The mixture was dissolved by sonication to give solution A. 3.400 g KH2PO4 was weighed. 250 mL pure water was added. […]
All data were calculated by Microsoft Excel software. The peak area was detected through an extracted ion chromatogram. The in vitro half-life (t1/2) of the compound was determined by linear fitting of the natural logarithm of compound elimination percentage over time.
In vitro half-life (t1/2) was calculated by the slope k: […]
The in vitro intrinsic clearance (in μL/min/mg protein) was calculated using the following formula: […]

[2] = Membrane permeability and transport properties (Caco-2); assay type: in vitro ADME; conditions: human, pH 7.4, Caco-2, 10 μM
Text: • 1. Caco-2 cells (ATCC) • 2. HEPES (Solarbio 804D049), penicillin/streptomycin (Solarbio 20200109), and PBS (Solarbio 20200620) • 3. Fetal Bovine Serum (FBS) (Sigma WXBD0055V), lucifer yellow (Sigma MKCJ3738), and NaHCO3 (Sigma SLBZ4647) • 4. Hank's balanced salt solution (HBSS) (Gibco 2085528), non-essential amino acid (NEAA) (Gibco 2211548), and Trypsin/EDTA (Gibco 2120732) • 5. High glucose DMEM (Corning 20319014) • 6. HTS Transwell-96 Well Permeable (Corning, 3391) • 7. Resistance detector (Millipore, Millicell® ERS-2) • 8. Cellometer® Vision (Nexcelom Bioscience) • 9. Infinite 200 PRO microplate reader (Tecan, Infinite M200PRO) • 10. Positive control compound metoprolol (Sinopharm 100084-201403), erythromycin (MCE 84550), and cimetidine (Sinopharm 100158-201406) • 11. ABI QTrap 5500 liquid chromatography-mass spectrometry system
• 1. […] Evaluation of integrity of monolayer cell membrane • 1) The cells fused and differentiated after 14 days of culture and were ready for a transport experiment. • 2) The resistance of the monolayer membrane was measured using a resistance detector. The resistance of each well was recorded. • 3) After measurement, the Transwell culture plate was re-incubated. • 4) The TEER value was calculated: […]

Which half-life at 1 μM [1] does the source give for `C[C@]12C=CC(=O)C=C1CC[C@@H]1[C@@H]2[C@@H](O)C[C@@]2(C)[C@H]1C[C@H]1O[C@@H](c3ccc(Cc4cc(N)c5c(c4)CCO5)cc3)O[C@]12C(=O)CO` [Compound 009, (6aR,6bS,7S,8aS,8bS,10R,11aR,12aS,12bS)-10-(4-((7-amino-2,3-dihydrobenzofuran-5-yl)methyl)phenyl)-7-hydroxy-8b-(2-hydroxyacetyl)-6a,8a-dimethyl-6a,6b,7,8,8a,8b,11a,12,12a,12b-decahydro-1H-naphtho[2′,1′:4,5]indeno[1,2-d][1,3]dioxolan-4(2H)-one] here?
Its half-life at 1 μM is 37.8 min.

What about the Papp A→B at 2 h, 10 μM ([2]; apical to basal) of the same compound?
The Papp A→B at 2 h, 10 μM was 0.73 ×10⁻⁶ cm/s.

What about the Papp B→A at 2 h, 10 μM ([2]; basal to apical) of the same compound?
The Papp B→A at 2 h, 10 μM was 3.86 ×10⁻⁶ cm/s.

Source: US20240307415A1, “STEROID COMPOUND, AND PHARMACEUTICAL COMPOSITION THEREOF AND USE THEREOF” (JIANGSU SIMCERE PHARMACEUTICAL CO., LTD., priority 2021, published 2024)
